Assay results: patent publication US8063044B2, “Pyrazole derivatives” (Pfizer Inc., priority 2001, dated 2011)

How the values were obtained:
[1] = target: T1, purified recombinant HIV-1 reverse transcriptase (Human immunodeficiency virus type 1 group M subtype B, UniProt P04585); experiment: Inhibition of HIV-1 reverse transcriptase enzyme ([3H]-SPA or flashplate assay); type: biochemical; conditions: recombinant RT expressed in Escherichia Coli; Poly(rA)-oligo(dT) [3H]-SPA or [3H]-flashplate assay; 5% final DMSO; read-out: IC50 (concentration at which the compound inhibited the reverse transcriptase by 50%)
T1 construct: purified recombinant HIV-1 reverse transcriptase (RT, EC, 2.7.7.49); made in house; host or cells: Escherichia coli
Description: A. Inhibition of HIV-1 Reverse Transcriptase Enzyme
The reverse transcriptase activity of the compounds of the invention may be assayed as following. Using the purified recombinant HIV-1 reverse transcriptase (RT, EC, 2.7.7.49) obtained by expression in Escherichia Coli, a 96-well plate assay system was established for assaying a large number of samples using either the Poly(rA)-oligo(dT) Reverse Transcriptase [3H]-SPA enzyme assay system (Amersham NK9020) or the [3H]-flashplate enzyme assay system (NEN-SMP 103) and following the manufacturer's recommendations. The compounds were dissolved in 100% DMSO and diluted with the appropriate buffer to a 5% final DMSO concentration. The inhibitory activity was expressed in percent inhibition relative to the DMSO control.

| melting point | SMILES | IC50 [1] |
| --- | --- | --- |
| 70 to 72 °C | CCc1nn(CC#N)c(CC)c1Oc1cc(Cl)cc(Cl)c1 | – |
| – | CCc1nn(Cc2cc(=O)[nH]c(N)n2)c(CC)c1Oc1cc(Cl)cc(Cl)c1 [Example 7, 2-Amino-6-{[4-(3,5-dichlorophenoxy)-3,5-diethyl-1H-pyrazol-1-yl]methyl}-4(3H)-pyrimidinone] | 39 µM |
| – | CCc1nn(CCO)c(CC)c1Oc1c(C)cc(C#N)cc1C [Example 20] | 3.2 µM |
| – | CCc1nn(C2CNC2)c(CC)c1Oc1cc(Cl)cc(Cl)c1 [Example 51, 1-(3-Azetidinyl)-4-(3,5-dichlorophenoxy)-3,5-diethyl-1H-pyrazole] | 0.248 µM |
